The results in this text go back to ChEMBL document CHEMBL1201862, “PubChem BioAssay data set” (2004).

Each structure is given as a SMILES string. Activity calls are given as the source filed them.

Experiment [1] addresses T1, Beta-lactamase (Pseudomonas aeruginosa, UniProt Q79MP6). As to the kind of experiment: […] counterscreen for selective VIM-2 inhibitors: dose response biochemical high throughput screening assay to identify inhibitors of IMP-1 metallo-beta-lactamase.
In experiment [2] the target is Beta-lactamase (Salmonella choleraesuis (strain SC-B67), UniProt Q5J463). As to the kind of experiment: Epi-absorbance-based counterscreen for selective VIM-2 inhibitors: dose response biochemical high throughput screening assay to identify inhibitors of TEM-1 serine-beta-lactamase. On the technique in general: A counterscreen serves to expose hits that act by an unwanted route or on another target.

For experiment [3], the target named is T1, Beta-lactamase. As to the kind of experiment: inhibition of IMP-1 beta-lactamase activity – biochemical, epi-absorbance, selectivity assay for VIM-2 inhibitor project, dose response (AID 1920).
The target of a further experiment is T2, Caspase-3 (Homo sapiens, UniProt P42574).
T2 sequence (P42574 whole entry): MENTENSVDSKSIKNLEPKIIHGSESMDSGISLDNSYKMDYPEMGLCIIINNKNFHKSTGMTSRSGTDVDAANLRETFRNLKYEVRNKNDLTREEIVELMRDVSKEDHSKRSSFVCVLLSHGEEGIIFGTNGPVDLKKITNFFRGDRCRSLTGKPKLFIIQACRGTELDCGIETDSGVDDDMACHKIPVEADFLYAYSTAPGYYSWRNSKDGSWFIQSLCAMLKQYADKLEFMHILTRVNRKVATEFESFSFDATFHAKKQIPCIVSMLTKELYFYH
As to the kind of experiment: Dose-response confirmation of uHTS inhibitor hits of Sentrin-Specific Protease 8 in a Caspase-3 Fluorescence assay. The experiment is classed as functional.

In experiment [4] the target is T3, Sentrin-specific protease 8 (Homo sapiens, UniProt Q96LD8).
T3 sequence (Q96LD8 whole entry): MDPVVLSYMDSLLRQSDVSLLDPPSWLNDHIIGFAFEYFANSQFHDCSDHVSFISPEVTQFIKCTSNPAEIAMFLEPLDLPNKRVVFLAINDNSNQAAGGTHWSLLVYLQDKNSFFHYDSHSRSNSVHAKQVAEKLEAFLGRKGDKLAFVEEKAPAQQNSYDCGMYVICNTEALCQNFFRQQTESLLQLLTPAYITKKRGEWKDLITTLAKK
The experiment is classed as functional.

The target of experiment [5] is T3, Sentrin-specific protease 8. The class given is functional. The source holds these as a separate data set.
The nature of experiment [6]: microbe, parasite or virus in culture. The experiment is classed as functional. Conditions: Mycobacterium tuberculosis.
For experiment [7], the target named is Matrix metalloproteinase-14 (Homo sapiens, UniProt P50281). As to the kind of experiment: Dose Response confirmation of uHTS hits for a small molecule inhibitors of MT1-MMP activation in a fluorescence assay set 1. The experiment is classed as functional.
For a further experiment, the target named is Protein Wnt-3a (Mus musculus, UniProt P27467). As to the kind of experiment: antagonism of Wnt3a pathway luciferase reporter – Wnt-LIGHT cells, luminescence, selectivity assay for Gli-SUFU antagonist project, dose response (AID 651570).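 Note: Wnt-LIGHT reporter cells stimulated with conditioned medium from Wnt3a-producing cells.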 The experiment is classed as functional. Particulars: read-out: IC50_Mean. (In general: In a reporter assay the amount or activity of a reporter protein is the signal.)

Experiment [8] can be described thus: viability loss in HepG2 hepatoma cells – cell-based, ATP luminescence, cherry-pick, activator set 2, cytotoxicity control, dose response (AID 1053143). The class given is functional.
Experiment [9] addresses T4, Disintegrin and metalloproteinase domain-containing protein 17 (Homo sapiens, UniProt P78536). As to the kind of experiment: inhibition of ADAM17 substrate cleavage – biochemical, quenched FRET substrate, counter-screen for ADAM10 exosite inhibitor project, dose response (AID 743253).
Experiment [10] is described as follows: potency of ADAM10 substrate cleavage blockers – biochemical, QFRET, dose response (AID 743254).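 Note: ADAM10 enzyme with the DM2 quenched FRET peptide as substrate; EDANS fluorescence gain as the protease cuts the substrate; inhibitor potency against ADAM10 proteolytic activity.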
For experiment [11], the target named is T4, Disintegrin and metalloproteinase domain-containing protein 17. As to the kind of experiment: exosite inhibitors of ADAM17, dose response, biochemical (AID 743260).
Experiment [12] can be described thus: HEK-293T viability loss after treatment – luminescence, T-cell screen hits, cytotoxicity control for TCR NF-kB inhibitor project, dose response (AID 489026).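 Note: cells exposed to compound about 14 hours before the viability readout.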 The class given is functional, cell-based.
The next experiment deals with A549. As to the kind of experiment: viability loss in A549 cells – cell-based, plate reader, cherry-pick samples, cytotoxicity control, dose response (AID 687028). The experiment is classed as functional. Particulars: Homo sapiens.
The target of experiment [13] is Arf-GAP with SH3 domain, ANK repeat and PH domain-containing protein 1 (Homo sapiens, UniProt Q9ULH1). The experiment is classed as functional.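 Note: biochemical fluorescence polarization dose–response screen measuring inhibition of ASAP1; ASAP1 GAP domain stimulating GTP hydrolysis by truncated human ARF1.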
The target of a further experiment is Nonstructural protein 1 (Influenza A virus, UniProt Q194T2). The experiment is classed as functional, Influenza A virus (A/California/07/2009(H1N1)).
Experiment [14] can be described thus: viability of PTEN-deleted HCT116 cells – cell-based, HCT116 PTEN knockout, dose response (AID 1047).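 Note: HCT116 colon tumor cells with PTEN knocked out; cells exposed to compound for 60 hours before readout; potency for loss of cell viability measured by luminescence.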 The experiment is classed as functional.
The target of experiment [15] is T5, DNA repair protein RAD52 homolog (Homo sapiens, UniProt P43351).
T5 sequence (P43351 whole entry): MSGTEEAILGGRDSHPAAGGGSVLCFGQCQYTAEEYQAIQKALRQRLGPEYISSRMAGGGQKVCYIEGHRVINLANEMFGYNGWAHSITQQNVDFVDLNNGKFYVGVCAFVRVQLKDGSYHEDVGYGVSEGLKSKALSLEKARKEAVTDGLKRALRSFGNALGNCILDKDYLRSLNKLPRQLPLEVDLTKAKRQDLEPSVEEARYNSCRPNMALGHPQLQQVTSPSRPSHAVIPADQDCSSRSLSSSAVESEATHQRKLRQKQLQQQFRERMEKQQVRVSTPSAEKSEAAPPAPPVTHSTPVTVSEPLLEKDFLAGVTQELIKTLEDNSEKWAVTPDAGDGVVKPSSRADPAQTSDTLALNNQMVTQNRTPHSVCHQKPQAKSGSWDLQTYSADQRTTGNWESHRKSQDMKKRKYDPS
The experiment is classed as functional, biochemical.

Experiment [16] is described as follows: viability of HCT116 lacking mutant beta-catenin – cell-based, human colon tumor, dose response (AID 1045).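 Note: HCT116 colon tumor cells with beta catenin knocked out; cells exposed to compound for 60 hours.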 The class given is functional.
In a further experiment the target is Paired box protein Pax-8 (Homo sapiens, UniProt Q06710). As to the kind of experiment: PAX8 transcriptional activity inhibition in RMG-I – RMG-I cells, luciferase, cherry-pick, dose response (AID 687027).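 Note: luciferase reporter driven by Pax8 target thyroperoxidase promoter measured by SteadyGlo luminescence.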 The experiment is classed as functional, cell-based.
Experiment [17] is described as follows: general mammalian cell viability loss – activator set, cherry-pick, cytotoxicity control for miR-122 modulator project, dose response (AID 720690).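 Note: HEK293T human cells scored for general mammalian cytotoxicity.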 The class given is functional, cell-based.
Experiment [18] can be described thus: OVCAR8 cell viability loss – plate reader, dry powder samples, PAX8 project, dose response (AID 743197). The experiment is classed as functional, cell-based. Conditions: OVCAR-8.
Experiment [19] can be described thus: activation of miR-122 Renilla sensor silencing – cell-based, Huh7 psiCHECK-miR122, Renilla luciferase, cherry-picked, dose response (AID 651956).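 Note: huh7 hepatoma cells stably carrying a psiCHECK-2 miR-122 sensor plasmid; renilla luciferase signal reporting endogenous miR-122 activity after 48 h compound exposure.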 The class given is functional.
The target of experiment [20] is Scavenger receptor class B member 1 (Mus musculus, UniProt Q61009). As to the kind of experiment: blockers of DiI-HDL lipid transfer via SR-BI – cell-based, ldlA[mSR-BI] CHO, DiI fluorescence, dry powder, set 10, dose response (AID 624029). The experiment is classed as functional.
Chain of Scavenger receptor class B member 1 (Q61009 whole entry): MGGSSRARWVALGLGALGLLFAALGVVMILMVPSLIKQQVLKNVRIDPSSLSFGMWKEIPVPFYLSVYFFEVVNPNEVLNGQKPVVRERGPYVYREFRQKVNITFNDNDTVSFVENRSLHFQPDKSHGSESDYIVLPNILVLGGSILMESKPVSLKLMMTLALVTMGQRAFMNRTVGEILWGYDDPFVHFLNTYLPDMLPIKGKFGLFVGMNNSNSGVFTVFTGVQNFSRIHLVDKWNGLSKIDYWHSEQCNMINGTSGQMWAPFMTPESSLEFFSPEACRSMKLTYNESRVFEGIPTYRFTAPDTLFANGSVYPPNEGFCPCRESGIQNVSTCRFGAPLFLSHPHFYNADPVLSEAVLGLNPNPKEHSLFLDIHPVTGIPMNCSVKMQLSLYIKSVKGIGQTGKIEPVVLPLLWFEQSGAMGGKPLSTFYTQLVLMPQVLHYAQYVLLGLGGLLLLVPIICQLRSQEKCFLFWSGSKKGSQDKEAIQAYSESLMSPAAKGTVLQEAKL

T4 sequence (P78536 whole entry, the tested form may be a part): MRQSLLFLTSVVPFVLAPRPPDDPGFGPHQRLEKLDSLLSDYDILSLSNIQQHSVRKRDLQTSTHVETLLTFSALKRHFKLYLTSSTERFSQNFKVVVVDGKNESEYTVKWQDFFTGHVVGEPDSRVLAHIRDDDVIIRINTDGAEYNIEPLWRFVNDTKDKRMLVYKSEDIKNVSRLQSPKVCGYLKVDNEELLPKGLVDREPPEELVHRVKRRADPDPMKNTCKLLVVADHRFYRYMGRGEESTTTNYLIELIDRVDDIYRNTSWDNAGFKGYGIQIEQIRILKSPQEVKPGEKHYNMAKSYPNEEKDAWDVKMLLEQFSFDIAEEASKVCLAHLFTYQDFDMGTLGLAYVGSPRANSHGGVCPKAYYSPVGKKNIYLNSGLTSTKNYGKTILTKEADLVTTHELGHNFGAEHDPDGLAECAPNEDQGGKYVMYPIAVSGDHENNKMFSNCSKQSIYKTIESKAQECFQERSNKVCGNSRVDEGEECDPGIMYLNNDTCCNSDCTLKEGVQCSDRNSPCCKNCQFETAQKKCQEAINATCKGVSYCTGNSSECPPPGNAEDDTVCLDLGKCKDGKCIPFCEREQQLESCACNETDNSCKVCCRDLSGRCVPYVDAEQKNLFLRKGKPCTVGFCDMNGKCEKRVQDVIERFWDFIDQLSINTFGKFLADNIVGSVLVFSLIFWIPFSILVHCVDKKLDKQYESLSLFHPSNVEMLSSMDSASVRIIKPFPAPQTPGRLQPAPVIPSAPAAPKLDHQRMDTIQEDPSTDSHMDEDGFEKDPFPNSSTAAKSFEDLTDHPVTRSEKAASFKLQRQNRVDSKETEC
T1 sequence (Q79MP6 whole entry): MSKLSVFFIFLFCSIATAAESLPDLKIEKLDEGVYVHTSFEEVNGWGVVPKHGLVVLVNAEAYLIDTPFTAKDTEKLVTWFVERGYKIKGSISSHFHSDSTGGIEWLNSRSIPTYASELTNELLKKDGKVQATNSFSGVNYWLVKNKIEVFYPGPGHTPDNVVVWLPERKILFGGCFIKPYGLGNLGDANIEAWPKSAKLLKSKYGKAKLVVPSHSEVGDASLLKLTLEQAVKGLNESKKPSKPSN
Chain of Protein Wnt-3a (P27467 whole entry): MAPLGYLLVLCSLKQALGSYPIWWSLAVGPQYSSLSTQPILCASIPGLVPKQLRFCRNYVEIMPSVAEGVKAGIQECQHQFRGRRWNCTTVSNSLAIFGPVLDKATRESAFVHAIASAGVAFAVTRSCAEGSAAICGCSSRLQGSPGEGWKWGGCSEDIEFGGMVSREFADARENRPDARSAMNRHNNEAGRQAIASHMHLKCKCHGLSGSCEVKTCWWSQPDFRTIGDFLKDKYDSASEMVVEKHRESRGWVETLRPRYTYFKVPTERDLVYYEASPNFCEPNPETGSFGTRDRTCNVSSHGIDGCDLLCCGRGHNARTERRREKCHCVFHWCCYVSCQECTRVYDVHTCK
Chain of Paired box protein Pax-8 (Q06710 whole entry): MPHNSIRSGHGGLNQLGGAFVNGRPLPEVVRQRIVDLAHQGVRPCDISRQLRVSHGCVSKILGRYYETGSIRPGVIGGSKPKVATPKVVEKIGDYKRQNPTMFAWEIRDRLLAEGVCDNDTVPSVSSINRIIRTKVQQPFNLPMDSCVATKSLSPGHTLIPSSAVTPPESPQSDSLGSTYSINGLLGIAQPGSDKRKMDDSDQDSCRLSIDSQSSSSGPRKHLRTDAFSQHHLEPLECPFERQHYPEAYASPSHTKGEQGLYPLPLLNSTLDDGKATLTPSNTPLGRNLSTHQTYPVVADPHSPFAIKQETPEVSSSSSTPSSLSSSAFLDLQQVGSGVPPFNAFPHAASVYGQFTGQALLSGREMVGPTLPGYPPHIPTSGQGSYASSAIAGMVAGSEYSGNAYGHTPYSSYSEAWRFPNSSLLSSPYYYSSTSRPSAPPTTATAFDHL
Chain of Arf-GAP with SH3 domain, ANK repeat and PH domain-containing protein 1 (Q9ULH1 whole entry, the tested form may be a part): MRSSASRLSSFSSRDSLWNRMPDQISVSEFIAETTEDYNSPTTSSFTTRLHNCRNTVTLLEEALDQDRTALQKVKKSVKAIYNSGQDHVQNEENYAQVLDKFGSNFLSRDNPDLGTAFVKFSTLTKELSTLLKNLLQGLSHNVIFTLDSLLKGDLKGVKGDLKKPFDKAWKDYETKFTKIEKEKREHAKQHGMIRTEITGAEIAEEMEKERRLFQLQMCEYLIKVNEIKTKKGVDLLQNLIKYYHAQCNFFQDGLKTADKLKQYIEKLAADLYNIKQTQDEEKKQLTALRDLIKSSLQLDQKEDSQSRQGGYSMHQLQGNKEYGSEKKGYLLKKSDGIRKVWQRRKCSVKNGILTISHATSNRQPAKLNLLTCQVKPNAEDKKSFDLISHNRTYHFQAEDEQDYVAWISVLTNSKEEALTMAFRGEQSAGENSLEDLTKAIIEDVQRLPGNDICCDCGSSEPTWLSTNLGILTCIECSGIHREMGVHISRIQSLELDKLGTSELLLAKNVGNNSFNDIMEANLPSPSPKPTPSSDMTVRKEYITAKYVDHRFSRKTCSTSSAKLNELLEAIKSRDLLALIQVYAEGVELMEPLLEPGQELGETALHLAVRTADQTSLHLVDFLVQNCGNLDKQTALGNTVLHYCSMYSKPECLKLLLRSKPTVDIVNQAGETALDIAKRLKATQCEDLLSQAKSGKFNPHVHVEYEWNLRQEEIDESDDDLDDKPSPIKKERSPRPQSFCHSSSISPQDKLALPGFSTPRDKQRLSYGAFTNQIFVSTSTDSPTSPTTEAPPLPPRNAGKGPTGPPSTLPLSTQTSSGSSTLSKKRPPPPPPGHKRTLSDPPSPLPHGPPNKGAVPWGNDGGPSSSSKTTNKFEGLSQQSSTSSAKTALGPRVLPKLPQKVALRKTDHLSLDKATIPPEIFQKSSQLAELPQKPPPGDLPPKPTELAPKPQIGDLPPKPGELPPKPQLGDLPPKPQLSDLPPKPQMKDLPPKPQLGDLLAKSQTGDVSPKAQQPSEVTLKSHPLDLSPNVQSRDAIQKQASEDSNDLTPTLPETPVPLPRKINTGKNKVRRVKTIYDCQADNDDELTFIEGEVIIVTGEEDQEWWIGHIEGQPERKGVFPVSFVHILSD
Chain of Beta-lactamase (Salmonella choleraesuis (strain SC-B67), UniProt Q5J463) (Q5J463 whole entry): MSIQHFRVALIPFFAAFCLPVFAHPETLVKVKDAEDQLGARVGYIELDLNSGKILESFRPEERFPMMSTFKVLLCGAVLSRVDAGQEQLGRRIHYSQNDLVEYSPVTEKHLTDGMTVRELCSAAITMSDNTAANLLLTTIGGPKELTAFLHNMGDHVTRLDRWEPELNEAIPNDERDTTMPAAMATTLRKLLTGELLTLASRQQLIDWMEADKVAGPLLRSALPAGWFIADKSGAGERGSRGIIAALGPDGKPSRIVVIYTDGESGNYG
Chain of Nonstructural protein 1 (Q194T2 whole entry): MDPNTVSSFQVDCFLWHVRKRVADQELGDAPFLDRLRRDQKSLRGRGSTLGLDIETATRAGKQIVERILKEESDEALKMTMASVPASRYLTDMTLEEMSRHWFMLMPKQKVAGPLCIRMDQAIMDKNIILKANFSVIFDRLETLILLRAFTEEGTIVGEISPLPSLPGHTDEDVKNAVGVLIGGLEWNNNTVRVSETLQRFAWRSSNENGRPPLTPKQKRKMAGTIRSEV

For the compound `O=C(c1ccco1)N1N=C(c2ccc(Cl)cc2)CC1c1ccco1` (stereo not given), the IC50 on Beta-lactamase [1], at Beta-lactamase [2] and on Beta-lactamase [3] was > 59.6 µM (inactive) throughout.

As for `O=C(Cn1nc(Cc2ccncc2)c2ccccc2c1=O)N1CCc2ccccc2C1`, the IC50 on Caspase-3 is 13.3 µM (active); in [4], 3.48 µM (active); in experiment [5], 6.46 µM (active).

Consider `COc1ccccc1C(=O)NC(=S)/C=C1/N(C)c2ccccc2C1(C)C`, for which the CC50 in experiment [6] is > 40 µM (active). In addition, the IC50 was > 80 µM (inactive) in experiment [7] and 15.2 µM (active) on Protein Wnt-3a.

With `Cc1cc2nn(-c3ccc(Cl)cc3)nc2cc1N`, in experiment [8], the AC50 (as a rule, the midpoint of the concentration-response curve, whichever way the signal moves) is 21.4 µM (active).

Turning to `O=C(NCC1CCCO1)C(c1cccs1)N(Cc1ccccc1)C(=O)c1ccc(-c2ccccc2)[nH]1` (stereo not given), the IC50 in experiment [9], in [10] and in experiment [11] was > 69.5 µM (inactive) throughout.

Regarding `Oc1cc(-c2cccc(F)c2)nc2ccccc12`, in [12], the IC50 was > 80 µM (inactive). Further, in the experiment with A549, the AC50 was 18.8 µM (active).

For the compound `CCC(/C=C1\Sc2ccc(OC)cc2N1CCO)=C\c1sc2ccc(OC)cc2[n+]1CCO`, the figures for the IC50 (in [13]; at Nonstructural protein 1) were 165 µM (inactive) and 5.11 µM (active), respectively. For the same compound, the values for the EC50 in [14] and in experiment [16] were 5.7 µM (active) and 5.82 µM (active), respectively. In experiment [15], the AC50 was 1.77 µM (active).

`C[C@@H]1CN([C@@H](C)CO)C(=O)Cc2cc(NC(=O)Nc3ccc(C(F)(F)F)cc3)ccc2O[C@H]1CN(C)Cc1ccc(Oc2ccccc2)cc1`: the AC50 at Paired box protein Pax-8 is 10.3 µM (active); in [17], 19.9 µM (active); in [18], 39.9 µM (active); in experiment [19], 19.9 µM (active).

As to `CC(C)NC(=O)Nc1ccc2c(c1)C(=O)N([C@@H](C)CO)C[C@@H](C)[C@H](CN(C)S(=O)(=O)c1ccc(Cl)cc1)O2`, in experiment [20], the AC50 was 0.154 µM (active).
